Test results published in US20180149606A1, “XENON BASED DRUG PROTEIN BINDING ASSAY” (priority 2016, published 2018).

What was measured:
[1] = biological target: T1, albumin (Bos taurus, UniProt P02769); parameters: other: bovine serum albumin whenever possible, close to 25 degrees Celsius; highest; settings: bovine serum albumin whenever possible, close to 25 degrees Celsius; highest affinity site; cited from earlier work
[2] = biological target: T1, albumin; assay: Xenon T2 relaxation measurement of drug binding to albumin (Tables 1 and 2); parameters: T2: unit not given here; settings: 10 μM albumin, 9.4 T
From the text: Hyperpolarized ^129Xe was generated in a rubidium cell hyperpolarizer, and bubbled into the solution.
Hyperpolarized ^129Xe was magnetized in a rubidium cell hyperpolarizer, and bubbled into the solution.
Target sequence in this assay (P02769 25-607): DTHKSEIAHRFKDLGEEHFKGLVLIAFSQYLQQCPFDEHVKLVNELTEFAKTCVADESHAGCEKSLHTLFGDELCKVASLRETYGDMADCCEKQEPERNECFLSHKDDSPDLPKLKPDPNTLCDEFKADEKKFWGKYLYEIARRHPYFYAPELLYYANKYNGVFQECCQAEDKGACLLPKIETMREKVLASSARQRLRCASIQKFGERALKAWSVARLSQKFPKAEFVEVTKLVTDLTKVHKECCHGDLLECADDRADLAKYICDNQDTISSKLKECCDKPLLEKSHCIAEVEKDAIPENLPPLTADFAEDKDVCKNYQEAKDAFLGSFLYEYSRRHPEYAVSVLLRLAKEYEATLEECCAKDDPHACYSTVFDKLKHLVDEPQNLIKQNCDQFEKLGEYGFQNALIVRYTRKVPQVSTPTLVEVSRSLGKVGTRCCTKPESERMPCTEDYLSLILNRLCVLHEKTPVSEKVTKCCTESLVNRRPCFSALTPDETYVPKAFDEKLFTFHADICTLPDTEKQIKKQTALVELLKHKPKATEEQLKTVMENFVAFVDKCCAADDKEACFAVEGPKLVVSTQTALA

[3] = biological target: bovine serum albumin (Bos taurus, UniProt P02769); assay: Drug titration of xenon T2 in 10 μM fatty acid free bovine serum albumin; format: binding; settings: for effect on the xenon T2 of albumin: titration up to 1 mM drug, 9.4 T, 25 degrees Celsius
bovine serum albumin, sequence (P02769 25-607): as above
Procedure: The following experiments were performed with fatty acid free bovine serum albumin. It is important to note whether the albumin one uses contains fatty acids both because the fats will alter the binding affinity of a drug and also because they alter the relaxivity of albumin. The drug titrations were performed by preparing a 10 μM solution of bovine serum albumin into which aliquots of high concentration drug solutions were added. Most drugs, as well as all protein solutions, were dissolved in 1×PBS buffer. It is important to keep the pH of the solution constant when studying albumin because that protein has many different pH dependent conformations.
All solutions were made by dissolving the drugs in 1×PBS, with the exception of the tenoxicam solution. The T2 times of solutions containing high concentrations of drugs were measured. […] For the tenoxicam solution, about 400 μL of DMSO was added to a 10 mL solution of 1×PBS.
T2 times were measured using a standard CPMG pulse sequence with 100 ms long echo spacings. All experiments were performed at 9.4 Tesla using hyperpolarized xenon. This hyperpolarized xenon was prepared using a homebuilt spin exchange optical pumping based polarizer. The protein solution was attached to the polarizer's flow system and the pressurized to 60 psi. Xenon was bubbled into the protein solution at a rate of about 0.1 standard liters per minute. The gas mixture used contained 2% xenon, with the rest of the gases being helium and nitrogen. All experiments were performed at 25 degrees Celsius.
All protein solutions required the addition of an antifoaming agent in order to prevent the xenon from forcing the sample out of the NMR tube. […] 1-octanol was used as the antifoaming agent in this experiment. The concentration of 1-octanol used was 5 μL of alcohol per 10 mL of solution.

Cn1c(=O)c2c(ncn2C)n(C)c1=O [Caffeine, caffeine]
Highest Binding Affinity log10(Ka) [1]: 4.3
Xenon relaxation time, T2 ([2]; 16 μM caffeine): 0.54 ± 0.04 s
Xenon relaxation time, T2 ([2]; 43 μM caffeine): 0.47 ± 0.04 s
Xenon relaxation time, T2 ([2]; 56 μM caffeine): 0.63 ± 0.04 s
Xenon relaxation time, T2 ([2]; 100 μM caffeine): 0.69 ± 0.03 s
Xenon relaxation time, T2 ([2]; 500 μM caffeine): 0.51 ± 0.03 s
Xenon relaxation time, T2 ([2]; 5000 μM caffeine): 0.67 ± 0.04 s
Xenon relaxation time, T2 ([2]; 80000 μM caffeine): 1.07 ± 0.03 s

CCCCCCCC/C=C\CCCCCCCC(=O)[O-].[Na+] [Sodium Oleate, sodium oleate]
Highest Binding Affinity log10(Ka) [1]: 8.0
increase of xenon T2 ([3]; three times as much sodium oleate as albumin, 10 μM albumin): 3 s
effect on the xenon T2 of albumin ([3]; 10 μM BSA): increased

Cc1onc(-c2c(F)cccc2Cl)c1C(=O)N[C@@H]1C(=O)N2[C@@H]1SC(C)(C)[C@@H]2C(=O)O [Flucloxacillin, flucloxacillin]
Highest Binding Affinity log10(Ka) [1]: 4.6
T2 ([2]; 70 μM flucloxacillin): 0.91 ± 0.04
T2 ([2]; 200 μM flucloxacillin): 0.99 ± 0.04
T2 ([2]; 250 μM flucloxacillin): 1.53 ± 0.05
T2 ([2]; 450 μM flucloxacillin): 0.97 ± 0.03
T2 ([2]; 2000 μM flucloxacillin): 0.73 ± 0.04
effect on the xenon T2 of albumin, repeated titration ([3]; higher concentrations of drug (beyond 1 mM), 10 μM BSA): no effect
effect on the xenon T2 of albumin ([3]; 10 μM BSA): much weaker effect

CN1C(C(=O)Nc2ccccn2)=C(O)c2sccc2S1(=O)=O [Tenoxicam, tenoxicam]
Highest Binding Affinity log10(Ka) [1]: 5.4
